23 compounds from patent US20070155764A1, “NOVEL SUBSTITUTED PYRIMIDINYLOXY UREAS USEFUL AS INHIBITORS OF PROTEIN KINASES” (KALYPSYS, INC., priority 2005, published 2007) can be followed below.

Holding throughout (format): biochemical
Experiment [1] has as its target T1, human B-Raf protein kinase (Homo sapiens, UniProt P15056).
T1 construct: GST (N); purchased Upstate Inc. 14-530 (B-Raf); 14-420 (Mek1)
Briefly: In vitro B-Raf/Mek1 composite kinase assay. Conditions: recombinant GST-tagged human B-Raf (Δ1-415) with inactive Mek1, 2 μM ATP. Put shortly:
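Luminescent ATP-depletion assay using recombinant N-terminal GST-tagged human B-Raf (Δ1-415, 1 ng/well) in MOPS pH 7.2 buffer with 10 mM MgCl2. Compounds were preincubated 15 min at about 22° C, then the reaction ran 2 h before PKLight readout. Efficacy is expressed as percentage of positive-control (Bay 43-9006) activity.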

For another experiment, the target named is T2, VEGFR2 kinase (Homo sapiens, UniProt P35968).
T2 construct: purchased Invitrogen Inc PV3660
Briefly: In vitro VEGFR2 kinase assay. The conditions noted are these: ADP Quest assay, poly Glu:Tyr substrate, 60 μM ATP. The method, boiled down: (§1)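 Compound was preincubated 10 min at ~22 °C with 20 ng VEGFR2 or 25 ng PDGFRβ, then poly Glu:Tyr (4:1) substrate (0.25 μg) with 60 μM ATP (in added buffer) was reacted 2 h at 30 °C. ADP Quest resorufin fluorescence was read (ex 530/em 580) after 30 min. Efficacy is expressed as percent of positive-control (Bay 43-9006) activity, with DMSO as negative control.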

In the next experiment the target is T3, PDGFRβ kinase (Homo sapiens, UniProt P09619).
T3 construct: purchased Invitrogen Inc. P3082
The experiment can be described thus: In vitro PDGFRβ kinase assay. The conditions noted are these: ADP Quest assay, poly Glu:Tyr substrate, 60 μM ATP. Put shortly:
as §1

T1 sequence (P15056 416-766): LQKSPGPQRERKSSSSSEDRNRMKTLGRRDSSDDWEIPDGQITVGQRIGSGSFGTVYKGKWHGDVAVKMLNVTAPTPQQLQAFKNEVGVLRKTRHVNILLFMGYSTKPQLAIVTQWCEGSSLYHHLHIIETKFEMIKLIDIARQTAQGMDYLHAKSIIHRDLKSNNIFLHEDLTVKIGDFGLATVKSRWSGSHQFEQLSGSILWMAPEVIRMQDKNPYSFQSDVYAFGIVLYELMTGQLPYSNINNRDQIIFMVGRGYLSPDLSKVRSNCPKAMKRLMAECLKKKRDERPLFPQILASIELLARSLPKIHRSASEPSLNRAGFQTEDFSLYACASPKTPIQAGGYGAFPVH
T2 sequence (P35968 20-1356): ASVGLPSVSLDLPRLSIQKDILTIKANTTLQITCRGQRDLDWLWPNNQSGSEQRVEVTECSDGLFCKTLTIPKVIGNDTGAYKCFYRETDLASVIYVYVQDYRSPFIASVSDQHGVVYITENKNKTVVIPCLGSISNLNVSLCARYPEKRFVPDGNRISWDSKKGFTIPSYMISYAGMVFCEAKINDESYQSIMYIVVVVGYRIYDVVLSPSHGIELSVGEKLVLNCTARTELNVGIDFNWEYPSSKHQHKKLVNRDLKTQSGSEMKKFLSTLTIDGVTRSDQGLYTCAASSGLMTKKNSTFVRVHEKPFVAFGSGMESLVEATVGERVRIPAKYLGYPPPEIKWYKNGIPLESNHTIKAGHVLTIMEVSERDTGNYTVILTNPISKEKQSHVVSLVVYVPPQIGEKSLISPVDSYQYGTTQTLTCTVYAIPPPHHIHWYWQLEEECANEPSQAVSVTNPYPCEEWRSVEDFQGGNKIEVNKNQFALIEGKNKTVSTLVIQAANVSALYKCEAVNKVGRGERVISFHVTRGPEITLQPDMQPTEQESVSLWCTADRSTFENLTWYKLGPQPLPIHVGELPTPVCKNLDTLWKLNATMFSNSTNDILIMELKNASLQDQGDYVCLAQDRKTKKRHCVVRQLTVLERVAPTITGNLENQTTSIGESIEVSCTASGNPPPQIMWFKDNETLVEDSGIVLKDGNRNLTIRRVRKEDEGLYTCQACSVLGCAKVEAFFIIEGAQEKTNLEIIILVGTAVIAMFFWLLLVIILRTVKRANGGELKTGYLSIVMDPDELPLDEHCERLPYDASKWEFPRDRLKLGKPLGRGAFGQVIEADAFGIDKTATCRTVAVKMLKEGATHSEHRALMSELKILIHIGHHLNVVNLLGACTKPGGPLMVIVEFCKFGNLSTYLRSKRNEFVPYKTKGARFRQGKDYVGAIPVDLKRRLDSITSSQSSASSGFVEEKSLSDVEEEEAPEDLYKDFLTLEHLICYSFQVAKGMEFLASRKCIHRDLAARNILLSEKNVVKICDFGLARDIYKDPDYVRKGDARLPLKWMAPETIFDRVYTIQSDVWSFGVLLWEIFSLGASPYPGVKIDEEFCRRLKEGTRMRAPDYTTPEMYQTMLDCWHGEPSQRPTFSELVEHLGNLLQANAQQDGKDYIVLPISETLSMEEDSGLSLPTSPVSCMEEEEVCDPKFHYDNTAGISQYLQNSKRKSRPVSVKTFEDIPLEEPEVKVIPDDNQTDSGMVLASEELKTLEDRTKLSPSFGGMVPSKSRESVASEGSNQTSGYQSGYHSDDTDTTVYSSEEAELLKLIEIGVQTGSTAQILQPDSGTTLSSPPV
T3 sequence (P09619 33-1106): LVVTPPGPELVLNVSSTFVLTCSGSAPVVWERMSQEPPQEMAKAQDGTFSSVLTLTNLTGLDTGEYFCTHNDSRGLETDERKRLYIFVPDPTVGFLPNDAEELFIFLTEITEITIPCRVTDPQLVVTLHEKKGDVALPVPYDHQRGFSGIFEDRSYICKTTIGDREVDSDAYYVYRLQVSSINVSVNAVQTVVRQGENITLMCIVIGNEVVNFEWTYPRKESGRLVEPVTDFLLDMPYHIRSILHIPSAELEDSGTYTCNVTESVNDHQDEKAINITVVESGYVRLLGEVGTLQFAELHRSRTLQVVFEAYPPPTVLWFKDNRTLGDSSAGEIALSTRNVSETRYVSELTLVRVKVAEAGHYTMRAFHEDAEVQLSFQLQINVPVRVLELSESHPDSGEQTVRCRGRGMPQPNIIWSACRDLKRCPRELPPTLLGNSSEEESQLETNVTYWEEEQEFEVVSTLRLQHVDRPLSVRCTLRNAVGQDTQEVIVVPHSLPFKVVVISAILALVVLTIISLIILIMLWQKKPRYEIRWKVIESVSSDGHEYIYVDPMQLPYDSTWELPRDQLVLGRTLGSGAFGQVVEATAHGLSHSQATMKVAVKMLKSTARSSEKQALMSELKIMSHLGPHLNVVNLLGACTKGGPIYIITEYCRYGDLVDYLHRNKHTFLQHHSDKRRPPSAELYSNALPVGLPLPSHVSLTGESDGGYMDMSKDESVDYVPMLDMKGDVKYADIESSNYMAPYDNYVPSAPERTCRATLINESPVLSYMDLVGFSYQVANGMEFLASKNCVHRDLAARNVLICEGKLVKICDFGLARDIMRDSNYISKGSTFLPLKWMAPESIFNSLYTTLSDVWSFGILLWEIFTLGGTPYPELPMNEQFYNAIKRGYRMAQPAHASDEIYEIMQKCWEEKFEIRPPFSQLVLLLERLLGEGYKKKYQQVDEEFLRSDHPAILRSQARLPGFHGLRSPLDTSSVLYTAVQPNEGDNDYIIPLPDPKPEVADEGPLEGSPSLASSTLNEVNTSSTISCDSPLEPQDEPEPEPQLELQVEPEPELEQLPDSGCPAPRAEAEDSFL

For the compound `Cn1cc(-c2cc(Oc3ccc(F)c(NC(=O)Nc4ccc(C(F)(F)F)cc4Cl)c3)ncn2)cn1` [Example 97, 1-(2-Chloro-4-(trifluoromethyl)phenyl)-3-(2-fluoro-5-(6-(1-methyl-1H-pyrazol-4-yl)pyrimidin-4-yloxy)phenyl)urea], the IC50 (in experiment [1]; at VEGFR2 kinase; at PDGFRβ kinase) was at most 10 µM each time.
Consider `Cn1cc(-c2nccc(Oc3cccc(NC(=O)Nc4cccc(C(F)(F)F)c4)c3)n2)cn1` [Example 98, 1-(3-(2-(1-Methyl-1H-pyrazol-4-yl)pyrimidin-4-yloxy)phenyl)-3-(3-(trifluoromethyl)phenyl)urea], for which the IC50 (in experiment [1]; against VEGFR2 kinase; on PDGFRβ kinase) was at most 10 µM in each case.
`Cn1cc(-c2nccc(Oc3ccc(NC(=O)Nc4cccc(C(F)(F)F)c4)cc3)n2)cn1` [Example 99, 1-(4-(2-(1-Methyl-1H-pyrazol-4-yl)pyrimidin-4-yloxy)phenyl)-3-(3-(trifluoromethyl)phenyl)urea]: the half-maximal inhibitory concentration (IC50) (in experiment [1]; at VEGFR2 kinase; against PDGFRβ kinase) was at most 10 µM in each case.
As for `Cn1cc(-c2cc(Oc3ccc(F)c(NC(=O)Nc4ccc(C(F)(F)F)cc4)c3)ncn2)cn1` [Example 100, 1-(2-Fluoro-5-(6-(1-methyl-1H-pyrazol-4-yl)pyrimidin-4-yloxy)phenyl)-3-(4-(trifluoromethyl)phenyl)urea], the half-maximal inhibitory concentration (IC50) (in experiment [1]; on VEGFR2 kinase; against PDGFRβ kinase) was at most 10 µM in each case.
Turning to `Cn1cc(-c2cc(Oc3ccc(NC(=O)Nc4ccc(C(F)(F)F)cc4)cc3)ncn2)cn1` [Example 101, 1-(4-(6-(1-Methyl-1H-pyrazol-4-yl)pyrimidin-4-yloxy)phenyl)-3-(4-(trifluoromethyl)phenyl)urea], the results for the half-inhibitory concentration (IC50) (in experiment [1]; against VEGFR2 kinase; at PDGFRβ kinase) were above 10 µM, at most 10 µM and at most 10 µM, respectively.
Regarding `Cn1cc(-c2nccc(Oc3ccc(NC(=O)Nc4ccc(C(F)(F)F)cc4)cc3)n2)cn1` [Example 102, 1-(4-(2-(1-Methyl-1H-pyrazol-4-yl)pyrimidin-4-yloxy)phenyl)-3-(4-(trifluoromethyl)phenyl)urea], the IC50 (in experiment [1]; at VEGFR2 kinase; on PDGFRβ kinase) was at most 10 µM throughout.
As to `Cc1cc(NC(=O)Nc2cc(Oc3cc(-c4cnn(C)c4)ncn3)ccc2F)no1` [Example 104, 1-(2-Fluoro-5-(6-(1-methyl-1H-pyrazol-4-yl)pyrimidin-4-yloxy)phenyl)-3-(5-methylisoxazol-3-yl)urea], the IC50 (in experiment [1]; on VEGFR2 kinase; at PDGFRβ kinase) was at most 10 µM in each case.
As to `Cc1cc(NC(=O)Nc2ccc(Oc3ccnc(-c4cnn(C)c4)n3)cc2)no1` [Example 105, 1-(4-(2-(1-Methyl-1H-pyrazol-4-yl)pyrimidin-4-yloxy)phenyl)-3-(5-methylisoxazol-3-yl)urea], the half-maximal inhibitory concentration (IC50) in experiment [1] is above 10 µM; on VEGFR2 kinase it was at most 10 µM; on PDGFRβ kinase, at most 10 µM.
Take `O=C(Nc1cccc(Oc2cc(-c3ccnc4ccnn34)ncn2)c1)Nc1ccc(Cl)c(C(F)(F)F)c1` [Example 106, 1-(4-Chloro-3-(trifluoromethyl)phenyl)-3-(3-(6-(pyrazolo[1,5-a]pyrimidin-7-yl)pyrimidin-4-yloxy)phenyl)urea]: the half-inhibitory concentration (IC50) (in experiment [1]; at VEGFR2 kinase; on PDGFRβ kinase) was at most 10 µM each time.
For `O=C(Nc1cccc(Oc2cc(-c3ccnc4ncnn34)ncn2)c1)Nc1ccc(Cl)c(C(F)(F)F)c1` [Example 107, 1-(3-(6-([1,2,4]Triazolo[1,5-a]pyrimidin-7-yl)pyrimidin-4-yloxy)phenyl)-3-(4-chloro-3-(trifluoromethyl)phenyl)urea], the IC50 (in experiment [1]; on VEGFR2 kinase; at PDGFRβ kinase) was at most 10 µM each time.
`CN(C(=O)Nc1ccc(Oc2ccnc(-c3nnco3)c2)cc1)c1ccc(Cl)c(C(F)(F)F)c1` [Example 108, 3-(4-(2-(1,3,4-Oxadiazol-2-yl)pyridin-4-yloxy)phenyl)-1-(4-chloro-3-(trifluoromethyl)phenyl)-1-methylurea]: the IC50 (in experiment [1]; on VEGFR2 kinase; against PDGFRβ kinase) was above 10 µM in each case.
For the compound `CN(C(=O)Nc1cccc(Oc2ccnc(-c3nnco3)c2)c1)c1ccc(Cl)c(C(F)(F)F)c1` [Example 109, 3-(3-(2-(1,3,4-Oxadiazol-2-yl)pyridin-4-yloxy)phenyl)-1-(4-chloro-3-(trifluoromethyl)phenyl)-1-methylurea], the IC50 in experiment [1] was at most 10 µM; against VEGFR2 kinase, above 10 µM; on PDGFRβ kinase, above 10 µM.
For the compound `CN(C(=O)Nc1ccc(Cl)c(C(F)(F)F)c1)c1ccc(Oc2ccnc(-c3nnco3)c2)cc1` [Example 110, 1-(4-(2-(1,3,4-Oxadiazol-2-yl)pyridin-4-yloxy)phenyl)-3-(4-chloro-3-(trifluoromethyl)phenyl)-1-methylurea], the IC50 (in experiment [1]; against VEGFR2 kinase; against PDGFRβ kinase) was at most 10 µM each time.
For the compound `CN(C(=O)Nc1ccc(Cl)c(C(F)(F)F)c1)c1cccc(Oc2ccnc(-c3nnco3)c2)c1` [Example 111], the concentration for half-maximal inhibition (IC50) in experiment [1] was above 10 µM; on VEGFR2 kinase, above 10 µM; on PDGFRβ kinase, at most 10 µM.
`Cc1ccc(F)c(NC(=O)N(C)c2ccc(Oc3ccnc(-c4nnco4)c3)cc2)c1` [Example 112, 3-(2-Fluoro-5-methyl-phenyl)-1-methyl-1-[4-(2-[1,3,4]oxadiazol-2-yl-pyridin-4-yloxy)-phenyl]-urea]: the IC50 in experiment [1] is at most 10 µM; at VEGFR2 kinase it was above 10 µM; at PDGFRβ kinase, at most 10 µM.
As for `CN(C(=O)Nc1ccc(Cl)c(Cl)c1)c1ccc(Oc2ccnc(-c3nnco3)c2)cc1` [Example 113, 3-(3,4-Dichloro-phenyl)-1-methyl-1-[4-(2-[1,3,4]oxadiazol-2-yl-pyridin-4-yloxy)-phenyl]-urea], the concentration for half-maximal inhibition (IC50) was at most 10 µM in experiment [1], above 10 µM against VEGFR2 kinase and at most 10 µM against PDGFRβ kinase.
As to `CNC(=O)c1cc(Oc2ccc(N(C)C(=O)Nc3ccc(Cl)c(C(F)(F)F)c3)cc2)ccn1` [Example 114, 4-{4-[3-(4-Chloro-3-trifluoromethyl-phenyl)-1-methyl-ureido]-phenoxy}-pyridine-2-carboxylic acid methylamide], the half-inhibitory concentration (IC50) (in experiment [1]; against VEGFR2 kinase; against PDGFRβ kinase) was at most 10 µM each time.
For `CNC(=O)c1cccc(NC(=O)N(C)c2ccc(Oc3ccnc(C(=O)NC)c3)cc2)c1` [Example 115, 4-{4-[1-Methyl-3-(3-methylcarbamoyl-phenyl)-ureido]-phenoxy}-pyridine-2-carboxylic acid methylamide], the IC50 in experiment [1] is at most 10 µM; at VEGFR2 kinase, above 10 µM; against PDGFRβ kinase it was above 10 µM.
In the case of `CNC(=O)c1cc(NC(=O)N(C)c2ccc(Oc3ccnc(C(=O)NC)c3)cc2)cc(C(F)(F)F)c1` [Example 116, 4-{4-[1-Methyl-3-(3-methylcarbamoyl-5-trifluoromethyl-phenyl)-ureido]-phenoxy}-pyridine-2-carboxylic acid methylamide], the concentration for half-maximal inhibition (IC50) was above 10 µM in experiment [1], at most 10 µM at VEGFR2 kinase and at most 10 µM against PDGFRβ kinase.
As to `CNC(=O)c1cc(Oc2ccc(N(C)C(=O)Nc3cc(OCCOC)cc(C(F)(F)F)c3)cc2)ccn1` [Example 117, 4-(4-{3-[3-(2-Methoxy-ethoxy)-5-trifluoromethyl-phenyl]-1-methyl-ureido}-phenoxy)-pyridine-2-carboxylic acid methylamide], the IC50 in experiment [1] is above 10 µM; on VEGFR2 kinase, at most 10 µM; against PDGFRβ kinase, at most 10 µM.
For `CNC(=O)c1cc(Oc2ccc(N(C)C(=O)Nc3cc(-n4cnc(C)c4)cc(C(F)(F)F)c3)cc2)ccn1` [Example 118, 4-(4-{1-Methyl-3-[3-(4-methyl-imidazol-1-yl)-5-trifluoromethyl-phenyl]-ureido}-phenoxy)-pyridine-2-carboxylic acid methylamide], the IC50 (in experiment [1]; on VEGFR2 kinase; against PDGFRβ kinase) was at most 10 µM each time.
Take `CN(C(=O)Nc1ccc(Cl)c(C(F)(F)F)c1)c1ccc(Oc2ccnc(-c3cnn(C)c3)c2)cc1` [Example 119, 3-(4-Chloro-3-trifluoromethyl-phenyl)-1-methyl-1-{4-[2-(1-methyl-1H-pyrazol-4-yl)-pyridin-4-yloxy]-phenyl}-urea]: the IC50 (in experiment [1]; on VEGFR2 kinase; against PDGFRβ kinase) was at most 10 µM in each case.
With `CN(C(=O)Nc1ccc(Cl)c(C(F)(F)F)c1)c1ccc(Oc2ccnc(-c3nc(C(F)(F)F)c[nH]3)c2)cc1` [Example 120, 3-(4-Chloro-3-trifluoromethyl-phenyl)-1-methyl-1-{4-[2-(4-trifluoromethyl-1H-imidazol-2-yl)-pyridin-4-yloxy]-phenyl}-urea], the half-inhibitory concentration (IC50) (in experiment [1]; against VEGFR2 kinase; against PDGFRβ kinase) was at most 10 µM throughout.
